Columns and labels:
[1] = Masking effect on Acesulfame-K, trained panel; parameters: species or system human; details: base Acesulfame-K 300 ppm in water; for Masking Intensity: panel average, scale 0-5
From the text: (§1) Preparation of Test Samples: […], oroxylin A-7 glucouronide, wogonoside, baicalein, oroxylin A and wogonin were purchased commercially. S. baicalensis extract (“Extract”) and cabohydrase-treated S. baicalensis extract (“Treated Extract”) were obtained as above in Example 1.
(§2) Subsequently, all compounds and extracts were applied to different bases for evaluating their off-taste masking functions.
(§3) Testing Procedure: The masking effects on the off-tastes (bitterness, sourness, astringency, lingering and drying aftertaste, etc.) associated with various food components was evaluated by a group of 16 trained panelist. Each provided a rank of masking intensity using the intensity scales of 0 to 5, where 0 represents “no masking effect,” 1 represents “minimal masking intensity” and 5 represents “the most masking intensity.” The average of the reported making intensity is presented in the following examples.
A base solution of Acesulfame-K was prepared in water (300 ppm). […] The flavor profile of the Acesulfame-K solutions with compounds or extracts were further evaluated and is reported in the following: […]

[2] = Masking effect on Reb A, trained panel; parameters: species or system human; details: base Reb A 200 ppm in water; for Masking Intensity: panel average, scale 0-5
From the text: as §1, §2, §3
A base solution of Reb A was prepared in water (200 ppm). […] The flavor profile of the Reb A solutions with compounds or extracts were further evaluated and is reported in the following: […]

[3] = Masking effect on sorbic acid, trained panel; parameters: species or system human; details: base sorbic acid 150 ppm in water; for Masking Intensity: panel average, scale 0-5
From the text: as §1, §2, §3
A base solution of sorbic acid was prepared in water (150 ppm). […] The flavor profile of the sorbic acid solutions with compounds or extracts were further evaluated and is reported in the following: […]

[4] = Masking effect on benzoic acid, trained panel; parameters: species or system human; details: base benzoic acid 250 ppm in water; for Masking Intensity: panel average, scale 0-5
From the text: as §1, §2, §3
A base solution of benzoic acid was prepared in water (250 ppm). […] The flavor profile of the benzoic acid solutions with compounds or extracts was further evaluated and is reported in the following: […]

[5] = Taste modulating activity of the individual compounds; details: for taste modulation effect: flavone aglycones versus corresponding flavone glycosides; for taste modulating activity: individual compounds, Example 1
Protocol: With bio-transformation, most baicalin was converted to baicalein; oroxylin A glucuronide was converted to oroxylin A; and wogonoside was converted to wogonin. The activity of the individual compounds was also analyzed for taste modulating activity.

[6] = Masking effect on citric acid, trained panel; parameters: species or system human; details: base citric acid 300 ppm in water; for Masking Intensity: panel average, scale 0-5
From the text: as §1, §2, §3
A base solution of citric acid was prepared in water (300 ppm). […] The flavor profile of the citric acid solutions with compounds or extracts were further evaluated and is reported in the following: […]

[7] = Masking effect on pea protein, trained panel; parameters: species or system human; details: base TRUPRO pea protein 5% in water, test sample 0.5 ppm; for Masking Intensity: panel average, scale 0-5
From the text: as §1, §2, §3
A base solution of TRUPRO® pea protein (Solae LLC) was prepared in water (5%). […] The flavor profile of the pea protein solutions with compounds or extracts were further evaluated and is reported in the following: […]

[8] = Masking effect on Reb M, trained panel; parameters: species or system human; details: base Reb M 200 ppm in water, test sample 0.5 ppm; for Masking Intensity: panel average, scale 0-5
From the text: as §1, §2, §3
A base solution of Reb M was prepared in water (200 ppm). […] The flavor profile of the Reb M solutions with compounds or extracts were further evaluated and is reported in the following: […]

[9] = system: healthy subjects; details: oral doses in the range of 100-2800 mg; cited from earlier work

O=C(O)C1OC(Oc2cc3oc(-c4ccccc4)cc(=O)c3c(O)c2O)C(O)C(O)C1O (centres unmarked) [Baicalin, 5,6-dihydroxy-7-O-glucuronide flavone, reference compound]
Masking Intensity ([1]; test sample 0.5 ppm): 1
Masking Intensity ([2]; test sample 0.5 ppm): 1
Masking Intensity ([3]; test sample 0.5 ppm): 1
Masking Intensity ([4]; test sample 0.5 ppm): 1
taste modulation effect [5]: weak taste modulation effect
taste modulating activity [5]: some activity
Masking Intensity ([6]; test sample 0.5 ppm): 1
Masking Intensity [7]: 1
Masking Intensity [8]: 1

COc1c(O)cc2oc(-c3ccccc3)cc(=O)c2c1O [Oroxylin A, 5,7-dihydroxy-6-methoxyflavone]
Masking Intensity ([1]; test sample 0.01 ppm): 1
Flavor Profile ([1]; test sample 0.1 ppm): Reduced bitterness and lingering aftertaste
Masking Intensity ([1]; test sample 0.1 ppm): 3
Flavor Profile ([1]; test sample 0.5 ppm): Reduced bitterness and lingering aftertaste,
Masking Intensity ([1]; test sample 0.5 ppm): 5
Flavor Profile ([1]; test sample 10 ppm): Reduced lingering aftertaste, very slight
Masking Intensity ([1]; test sample 10 ppm): 4
Flavor Profile ([1]; test sample 50 ppm): Reduced lingering aftertaste, noticeable
Masking Intensity ([1]; test sample 50 ppm): 2
Flavor Profile ([2]; test sample 0.01 ppm): Slightly reduced astringency, licorice flavor
Masking Intensity ([2]; test sample 0.01 ppm): 2
Masking Intensity ([2]; test sample 0.1 ppm): 3
Masking Intensity ([2]; test sample 0.5 ppm): 5
Masking Intensity ([2]; test sample 10 ppm): 4
Masking Intensity ([2]; test sample 50 ppm): 2
Flavor Profile ([3]; test sample 0.5 ppm): Reduced astringency, sourness, and drying
Masking Intensity ([3]; test sample 0.5 ppm): 4
Masking Intensity ([4]; test sample 0.001 ppm): 0
Masking Intensity ([4]; test sample 0.01 ppm): 1
Masking Intensity ([4]; test sample 0.1 ppm): 3
Flavor Profile ([4]; test sample 0.5 ppm): Reduced astringency, sourness, and drying
Masking Intensity ([4]; test sample 0.5 ppm): 4
Flavor Profile ([4]; test sample 1 ppm): Reduced astringency, sourness, and drying
Masking Intensity ([4]; test sample 1 ppm): 5
Flavor Profile ([4]; test sample 10 ppm): Reduced astringency, sourness, and drying
Masking Intensity ([4]; test sample 10 ppm): 4
Flavor Profile ([4]; test sample 50 ppm): Reduced astringency, sourness, and drying
Masking Intensity ([4]; test sample 50 ppm): 3
taste modulating activity [5]: more active
Flavor Profile ([6]; test sample 0.5 ppm): Reduced tart taste, more pleasant
Masking Intensity ([6]; test sample 0.5 ppm): 5
Flavor Profile [7]: Reduced astringency and bitterness, less
Masking Intensity [7]: 4
Flavor Profile [8]: Reduced bitterness and lingering aftertaste,
Masking Intensity [8]: 5

COc1c(OC2OC(C(=O)O)C(O)C(O)C2O)cc(O)c2c(=O)cc(-c3ccccc3)oc12 [Wogonoside, wogonin 7-O-β-D-glucuronide, reference compound]
Masking Intensity ([1]; test sample 0.5 ppm): 1
Flavor Profile ([2]; test sample 0.5 ppm): Slightly reduced astringency, licorice flavor
Masking Intensity ([2]; test sample 0.5 ppm): 1
Masking Intensity ([3]; test sample 0.5 ppm): 2
Masking Intensity ([4]; test sample 0.5 ppm): 1
taste modulation effect [5]: weak taste modulation effect
taste modulating activity [5]: some activity
Masking Intensity ([6]; test sample 0.5 ppm): 1
Flavor Profile [7]: Slightly reduced astringency and bitterness,
Masking Intensity [7]: 2
Masking Intensity [8]: 1

COc1c(OC2OC(C(=O)O)C(O)C(O)C2O)cc2oc(-c3ccccc3)cc(=O)c2c1O [Oroxylin A-7 glucuronide, 5,7-dihydroxy-6-methoxyflavone-7-O-β-D-glucuronopyranoside, reference compound]
Masking Intensity ([1]; test sample 0.5 ppm): 1
Flavor Profile ([2]; test sample 0.5 ppm): Slightly reduced astringency, licorice flavor
Masking Intensity ([2]; test sample 0.5 ppm): 1
Flavor Profile ([3]; test sample 0.5 ppm): Slightly reduced drying aftertaste
Masking Intensity ([3]; test sample 0.5 ppm): 2
Masking Intensity ([4]; test sample 0.5 ppm): 1
taste modulation effect [5]: weak taste modulation effect
taste modulating activity [5]: some activity
Masking Intensity ([6]; test sample 0.5 ppm): 1
Masking Intensity [7]: 1
Flavor Profile [8]: Slightly reduced bitterness and lingering
Masking Intensity [8]: 2

O=c1cc(-c2ccccc2)oc2cc(O)c(O)c(O)c12 [Baicalein, 5,6,7-trihydroxyflavone]
Flavor Profile ([1]; test sample 0.5 ppm): Slightly reduced bitterness and lingering
Masking Intensity ([1]; test sample 0.5 ppm): 2
Masking Intensity ([2]; test sample 0.5 ppm): 3
Masking Intensity ([3]; test sample 0.001 ppm): 0
Masking Intensity ([3]; test sample 0.01 ppm): 1
Masking Intensity ([3]; test sample 0.1 ppm): 2
Masking Intensity ([3]; test sample 0.5 ppm): 3
Flavor Profile ([3]; test sample 1 ppm): Reduced astringency, sourness, and drying
Masking Intensity ([3]; test sample 1 ppm): 4
Flavor Profile ([3]; test sample 10 ppm): Reduced astringency, sourness, and drying
Masking Intensity ([3]; test sample 10 ppm): 4
Flavor Profile ([3]; test sample 50 ppm): Reduced astringency, sourness, and drying
Masking Intensity ([3]; test sample 50 ppm): 3
Masking Intensity ([4]; test sample 0.5 ppm): 3
taste modulating activity [5]: more active
safety and tolerability [9]: safe and well-tolerated
Masking Intensity ([6]; test sample 0.01 ppm): 1
Flavor Profile ([6]; test sample 0.1 ppm): Slightly reduced tart taste
Masking Intensity ([6]; test sample 0.1 ppm): 2
Flavor Profile ([6]; test sample 0.5 ppm): Reduced tart taste
Masking Intensity ([6]; test sample 0.5 ppm): 3
Flavor Profile ([6]; test sample 1 ppm): Reduced tart taste
Masking Intensity ([6]; test sample 1 ppm): 4
Flavor Profile ([6]; test sample 10 ppm): Reduced tart taste, very slight bitterness
Masking Intensity ([6]; test sample 10 ppm): 3
Flavor Profile ([6]; test sample 50 ppm): Reduced tart taste, noticeable bitterness
Masking Intensity ([6]; test sample 50 ppm): 2
Flavor Profile [7]: Reduced astringency and bitterness, less
Masking Intensity [7]: 3
Flavor Profile [8]: Slightly reduced bitterness and lingering
Masking Intensity [8]: 3

From patent publication US20250241347A1, “COMPOSITIONS AND METHODS FOR TASTE MODULATION” (INTERNATIONAL FLAVORS & FRAGRANCES INC., priority 2019, published 2025)
